Measured values taken from ChEMBL document CHEMBL1155102, “Synthesis of all stereoisomers of KRN7000, the CD1d-binding NKT cell ligand” (Bioorg Med Chem Lett, 2008).
Activity calls are given as the source filed them. No cut-off for these calls is given here.

Tests used:
Type in all cases: functional, cell-based
iNKT [1] = assay: Induction of proliferation in mouse iNKT cells
iNKT [2] = assay: Induction of IL4 production in mouse iNKT cells
iNKT [3] = assay: Induction of IFN-gamma production in human iNKT cells
iNKT [4] = assay: Induction of IL4 production in human iNKT cells
iNKT [5] = assay: Induction of IL13 production in human iNKT cells
iNKT [6] = assay: Induction of IFN-gamma production in mouse iNKT cells
iNKT [7] = assay: Induction of IL4/IL13 production in mouse iNKT cells

Row | SMILES | Activity (iNKT [1]) | Activity (iNKT [2]) | Activity (iNKT [3]) | Activity (iNKT [4]) | Activity (iNKT [5]) | Activity (iNKT [6]) | Activity (iNKT [7])
1 | CCCCCCCCCCCCCCCCCCCCCCCCCC(=O)N[C@@H](CO[C@H]1O[C@H](CO)[C@H](O)[C@H](O)[C@H]1O)[C@@H](O)[C@H](O)CCCCCCCCCCCCCC | Active | Active | Active | Active | Active | – | –
2 | CCCCCCCCCCCCCCCCCCCCCCCCCC(=O)N[C@H](CO[C@H]1O[C@H](CO)[C@H](O)[C@H](O)[C@H]1O)[C@@H](O)[C@H](O)CCCCCCCCCCCCCC | – | Active | – | – | – | – | –
3 | CCCCCCCCCCCCCCCCCCCCCCCCCC(=O)N[C@@H](CO[C@H]1O[C@H](CO)[C@H](O)[C@H](O)[C@H]1O)[C@H](O)[C@H](O)CCCCCCCCCCCCCC | Active | – | Active | Active | Active | Active | Active
4 | CCCCCCCCCCCCCCCCCCCCCCCCCC(=O)N[C@H](CO[C@H]1O[C@H](CO)[C@H](O)[C@H](O)[C@H]1O)[C@H](O)[C@H](O)CCCCCCCCCCCCCC | – | – | inactive | inactive | – | – | –
5 | CCCCCCCCCCCCCCCCCCCCCCCCCC(=O)N[C@@H](CO[C@H]1O[C@H](CO)[C@H](O)[C@H](O)[C@H]1O)[C@H](O)[C@@H](O)CCCCCCCCCCCCCC | Active | – | Active | Active | Active | Active | Active
6 | CCCCCCCCCCCCCCCCCCCCCCCCCC(=O)N[C@H](CO[C@H]1O[C@H](CO)[C@H](O)[C@H](O)[C@H]1O)[C@@H](O)[C@@H](O)CCCCCCCCCCCCCC | Active | – | – | – | – | – | –
7 | CCCCCCCCCCCCCCCCCCCCCCCCCC(=O)N[C@@H](CO[C@H]1O[C@H](CO)[C@H](O)[C@H](O)[C@H]1O)[C@@H](O)[C@@H](O)CCCCCCCCCCCCCC | – | Active | Active | Active | Active | – | –
